Legend:
[1] = target: High affinity nerve growth factor receptor (Homo sapiens) (UniProt P04629); test: Inhibition of TRKA (unknown origin) at 0.5 uM relative to control
[2] = target: T1, Homeodomain-interacting protein kinase 4 (Homo sapiens) (UniProt Q8NE63); test: Inhibition of HIPK4 (unknown origin) at 0.5 uM relative to control
T1 sequence (whole entry): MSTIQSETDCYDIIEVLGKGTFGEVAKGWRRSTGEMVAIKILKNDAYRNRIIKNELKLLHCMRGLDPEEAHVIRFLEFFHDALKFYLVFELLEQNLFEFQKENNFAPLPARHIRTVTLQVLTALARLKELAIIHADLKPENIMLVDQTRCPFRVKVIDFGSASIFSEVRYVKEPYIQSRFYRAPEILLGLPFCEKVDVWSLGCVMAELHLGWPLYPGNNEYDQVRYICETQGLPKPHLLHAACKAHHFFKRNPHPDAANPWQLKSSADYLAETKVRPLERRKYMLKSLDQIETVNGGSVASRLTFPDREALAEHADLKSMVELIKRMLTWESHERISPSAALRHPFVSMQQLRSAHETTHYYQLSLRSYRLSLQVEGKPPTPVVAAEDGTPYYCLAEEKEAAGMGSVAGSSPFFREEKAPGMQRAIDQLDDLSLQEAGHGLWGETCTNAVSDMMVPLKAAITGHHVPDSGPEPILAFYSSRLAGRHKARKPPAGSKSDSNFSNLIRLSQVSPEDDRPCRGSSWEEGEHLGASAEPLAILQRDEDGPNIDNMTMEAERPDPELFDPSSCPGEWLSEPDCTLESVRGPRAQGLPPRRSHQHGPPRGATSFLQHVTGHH

[3] = target: T2, Homeodomain-interacting protein kinase 4 (Homo sapiens, UniProt Q8NE63); test: Inhibition of HIPK4 (unknown origin)
T2 sequence (Q8NE63 whole entry): T1 sequence (whole entry)

[4] = target: T3, Discoidin domain-containing receptor 2 (Homo sapiens) (UniProt Q16832); test: Inhibition of DDR2 (unknown origin) at 0.5 uM relative to control
T3 sequence (whole entry): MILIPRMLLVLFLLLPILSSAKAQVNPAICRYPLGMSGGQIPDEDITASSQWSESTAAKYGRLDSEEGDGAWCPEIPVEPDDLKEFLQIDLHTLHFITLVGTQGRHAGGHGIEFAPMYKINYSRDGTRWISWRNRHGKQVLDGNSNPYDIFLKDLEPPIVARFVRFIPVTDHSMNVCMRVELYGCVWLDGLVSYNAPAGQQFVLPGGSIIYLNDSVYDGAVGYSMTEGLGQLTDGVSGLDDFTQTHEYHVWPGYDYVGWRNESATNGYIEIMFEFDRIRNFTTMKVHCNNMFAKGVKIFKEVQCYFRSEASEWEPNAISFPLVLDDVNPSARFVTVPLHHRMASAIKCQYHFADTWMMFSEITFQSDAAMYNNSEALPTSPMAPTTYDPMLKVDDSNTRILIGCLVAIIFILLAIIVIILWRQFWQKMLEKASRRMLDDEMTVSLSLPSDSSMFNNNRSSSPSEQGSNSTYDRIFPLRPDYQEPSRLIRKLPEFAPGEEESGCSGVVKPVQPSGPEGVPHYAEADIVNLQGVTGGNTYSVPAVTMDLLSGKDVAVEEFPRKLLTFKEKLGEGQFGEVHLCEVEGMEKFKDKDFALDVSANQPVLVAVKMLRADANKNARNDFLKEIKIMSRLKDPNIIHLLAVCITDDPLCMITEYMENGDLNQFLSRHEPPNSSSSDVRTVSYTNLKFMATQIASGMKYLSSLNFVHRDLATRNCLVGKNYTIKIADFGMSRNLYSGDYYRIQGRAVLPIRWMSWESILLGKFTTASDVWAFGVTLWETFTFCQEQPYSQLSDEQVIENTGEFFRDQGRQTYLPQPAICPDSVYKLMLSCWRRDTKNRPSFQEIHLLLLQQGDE

[5] = target: T4, Tyrosine-protein kinase receptor TYRO3 (Homo sapiens) (UniProt Q06418); test: Inhibition of TYRO3 (unknown origin) at 0.5 uM relative to control
T4 sequence (whole entry): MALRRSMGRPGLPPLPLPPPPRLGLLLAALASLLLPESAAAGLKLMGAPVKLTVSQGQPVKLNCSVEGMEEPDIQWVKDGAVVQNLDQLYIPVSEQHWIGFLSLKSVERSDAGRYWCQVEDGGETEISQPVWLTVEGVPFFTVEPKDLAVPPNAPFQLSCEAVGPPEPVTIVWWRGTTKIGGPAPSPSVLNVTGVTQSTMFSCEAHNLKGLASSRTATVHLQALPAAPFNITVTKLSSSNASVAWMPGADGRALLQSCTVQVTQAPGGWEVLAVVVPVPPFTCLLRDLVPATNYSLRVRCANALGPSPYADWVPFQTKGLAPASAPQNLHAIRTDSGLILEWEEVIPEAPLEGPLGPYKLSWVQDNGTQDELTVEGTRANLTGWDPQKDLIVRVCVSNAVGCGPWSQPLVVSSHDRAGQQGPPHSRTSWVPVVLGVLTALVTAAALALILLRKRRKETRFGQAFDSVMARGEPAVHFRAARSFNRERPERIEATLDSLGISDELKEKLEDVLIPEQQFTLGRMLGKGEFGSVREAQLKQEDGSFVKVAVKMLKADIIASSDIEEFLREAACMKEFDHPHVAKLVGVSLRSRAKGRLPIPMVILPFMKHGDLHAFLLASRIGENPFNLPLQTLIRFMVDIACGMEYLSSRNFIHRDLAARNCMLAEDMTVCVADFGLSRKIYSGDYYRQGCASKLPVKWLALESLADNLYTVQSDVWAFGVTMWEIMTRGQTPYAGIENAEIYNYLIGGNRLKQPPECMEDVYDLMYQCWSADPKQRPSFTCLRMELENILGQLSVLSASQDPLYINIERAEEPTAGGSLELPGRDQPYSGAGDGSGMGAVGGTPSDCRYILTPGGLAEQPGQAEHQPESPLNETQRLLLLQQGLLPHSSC

[6] = target: Protein-tyrosine kinase 6 (Homo sapiens) (UniProt Q13882); test: Inhibition of BRK (unknown origin) at 0.5 uM relative to control
[7] = target: Serine/threonine-protein kinase 10 (Homo sapiens) (UniProt O94804); test: Inhibition of LOK (unknown origin) at 0.5 uM relative to control
Serine/threonine-protein kinase 10 (Homo sapiens), sequence (O94804 whole entry, looked up): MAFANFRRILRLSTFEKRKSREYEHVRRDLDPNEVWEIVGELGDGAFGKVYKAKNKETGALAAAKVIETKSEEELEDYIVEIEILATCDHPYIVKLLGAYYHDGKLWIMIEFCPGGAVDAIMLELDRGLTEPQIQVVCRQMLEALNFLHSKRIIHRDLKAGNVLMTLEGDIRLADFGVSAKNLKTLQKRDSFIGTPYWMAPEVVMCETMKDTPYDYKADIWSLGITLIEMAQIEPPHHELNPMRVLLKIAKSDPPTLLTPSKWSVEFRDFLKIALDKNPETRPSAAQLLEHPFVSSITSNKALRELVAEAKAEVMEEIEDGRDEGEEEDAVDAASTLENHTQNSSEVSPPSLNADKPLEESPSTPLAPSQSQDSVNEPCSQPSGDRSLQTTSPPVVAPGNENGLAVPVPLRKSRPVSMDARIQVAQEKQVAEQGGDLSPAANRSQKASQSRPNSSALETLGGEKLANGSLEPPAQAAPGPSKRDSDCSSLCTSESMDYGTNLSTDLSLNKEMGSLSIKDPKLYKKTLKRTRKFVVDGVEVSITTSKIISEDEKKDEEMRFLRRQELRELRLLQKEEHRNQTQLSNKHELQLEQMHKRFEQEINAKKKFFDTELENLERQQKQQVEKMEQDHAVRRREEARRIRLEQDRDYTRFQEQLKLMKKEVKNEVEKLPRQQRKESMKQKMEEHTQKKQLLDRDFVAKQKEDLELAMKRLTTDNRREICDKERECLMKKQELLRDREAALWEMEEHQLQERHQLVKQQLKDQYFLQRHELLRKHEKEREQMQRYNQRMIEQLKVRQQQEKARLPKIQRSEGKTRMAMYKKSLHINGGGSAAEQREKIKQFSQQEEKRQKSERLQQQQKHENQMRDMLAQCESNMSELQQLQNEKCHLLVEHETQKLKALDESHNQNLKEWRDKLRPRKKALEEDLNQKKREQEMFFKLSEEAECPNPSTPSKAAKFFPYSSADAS

High affinity nerve growth factor receptor (Homo sapiens), sequence (P04629 33-796 limits assumed): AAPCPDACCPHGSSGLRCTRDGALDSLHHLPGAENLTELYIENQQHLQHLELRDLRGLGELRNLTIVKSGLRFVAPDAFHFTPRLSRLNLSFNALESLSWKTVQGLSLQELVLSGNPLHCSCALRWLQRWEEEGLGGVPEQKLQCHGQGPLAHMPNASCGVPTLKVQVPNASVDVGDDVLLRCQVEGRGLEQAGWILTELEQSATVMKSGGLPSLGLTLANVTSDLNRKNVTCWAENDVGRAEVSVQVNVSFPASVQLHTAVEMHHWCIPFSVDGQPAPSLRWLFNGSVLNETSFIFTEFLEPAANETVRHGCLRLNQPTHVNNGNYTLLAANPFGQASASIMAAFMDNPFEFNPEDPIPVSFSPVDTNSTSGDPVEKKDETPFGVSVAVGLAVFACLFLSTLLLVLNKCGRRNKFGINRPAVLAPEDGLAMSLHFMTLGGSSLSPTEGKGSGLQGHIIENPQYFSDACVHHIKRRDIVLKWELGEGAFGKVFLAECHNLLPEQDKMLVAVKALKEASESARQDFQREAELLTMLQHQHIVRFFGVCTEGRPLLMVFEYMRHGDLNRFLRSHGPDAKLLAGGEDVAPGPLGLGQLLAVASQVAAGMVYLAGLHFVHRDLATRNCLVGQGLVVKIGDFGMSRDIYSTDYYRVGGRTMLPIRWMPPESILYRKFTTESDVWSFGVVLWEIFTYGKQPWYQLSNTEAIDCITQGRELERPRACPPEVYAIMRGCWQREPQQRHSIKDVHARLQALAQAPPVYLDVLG
Protein-tyrosine kinase 6 (Homo sapiens), sequence (Q13882 whole entry, looked up): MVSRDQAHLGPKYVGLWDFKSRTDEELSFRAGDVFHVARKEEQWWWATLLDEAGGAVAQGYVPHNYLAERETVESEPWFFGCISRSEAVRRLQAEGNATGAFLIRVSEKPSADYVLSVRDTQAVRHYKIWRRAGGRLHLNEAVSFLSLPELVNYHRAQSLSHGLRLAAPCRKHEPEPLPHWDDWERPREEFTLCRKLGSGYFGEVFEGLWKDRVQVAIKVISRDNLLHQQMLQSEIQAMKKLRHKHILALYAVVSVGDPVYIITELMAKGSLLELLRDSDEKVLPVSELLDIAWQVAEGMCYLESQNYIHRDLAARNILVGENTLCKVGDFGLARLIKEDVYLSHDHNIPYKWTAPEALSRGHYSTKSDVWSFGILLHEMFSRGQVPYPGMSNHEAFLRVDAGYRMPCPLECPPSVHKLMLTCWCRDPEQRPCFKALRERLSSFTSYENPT

Row | inhibition [1] [%] | inhibition [2] [%] | IC50 [3] [nM] | inhibition [4] [%] | inhibition [5] [%] | inhibition [6] [%] | inhibition [7] [%] | Compound
1 | – | 97 | 19 | 97 | 87 | 90 | 93 | CNC(=O)c1cc(Oc2ccc(NC(=O)c3nc(SC)[nH]c3-c3ccc(F)cc3)cc2)ccn1
2 | 47 | 99 | 3.3 | 58 | 82 | 80 | 66 | CNC(=O)c1cc(Oc2ccc(NC(=O)c3nc(SC)oc3-c3ccc(F)cc3)cc2)ccn1
3 | – | 95 | 9.6 | – | 65 | 87 | 58 | CNC(=O)c1cc(Oc2ccc(NC(=O)c3nc(C(F)(F)F)sc3-c3ccc(F)cc3)cc2)ccn1
4 | 36 | 96 | 5.1 | 61 | 70 | 34 | – | CNC(=O)c1cc(Oc2ccc(NC(=O)c3nc(S(C)(=O)=O)sc3-c3ccc(F)cc3)cc2)ccn1
5 | 58 | 96 | 5.2 | 54 | 59 | 53 | 50 | CNC(=O)c1cc(Oc2ccc(NC(=O)c3nc(NC)sc3-c3ccc(F)cc3)cc2)ccn1

Continued, compound first:

Row | Compound | inhibition [1] [%] | inhibition [2] [%] | IC50 [3] [nM] | inhibition [4] [%] | inhibition [5] [%] | inhibition [6] [%] | inhibition [7] [%]
6 | CNC(=O)c1cc(Oc2ccc(NC(=O)c3nc(SC)oc3-c3ccc(F)cc3)cc2F)ccn1 | 43 | 98 | 2.8 | 47 | 70 | 77 | 55
7 | CNC(=O)c1cc(Oc2ccc(NC(=O)c3n[nH]nc3-c3ccc(F)cc3)cc2)ccn1 | 43 | 84 | 49 | 76 | – | 32 | 26
8 | CSc1nc(C(=O)Nc2ccc(Oc3cc4cnn(C)c4cc3Br)cc2)c(-c2ccc(F)cc2)o1 | – | 87 | 32 | 48 | – | – | 36
9 | CNC(=O)c1cc(Oc2ccc(NC(=O)c3nc(SC)n(CCN(C)C)c3-c3ccc(F)cc3)cc2)ccn1 | 42 | 91 | 23 | 26 | 52 | 44 | 47
